pEC50: −log10 of the molar value.
Columns and labels:
HCT116 cells = experiment: Immunoblotting of cullins, CRL components and substrates in HCT116 cells; assay type: cell-based, human
Protocol: Figure 2 CSN5 inhibition results in the inactivation of a subset of CRLs and the stabilization of their substrates. Effect on CRL components and substrates after treatment of HCT116 cells with either 1 μM MLN4924 or 1 μM CSN5i-3. (a) Immunoblottings for Cul1 and its CRL components Rbx and Skp1; (b) for cullins Cul2, Cul3 and Cul4A; (c) for F-box protein Skp2 and the SCF^Skp2 substrates p21 and p27; (d) for F-box proteins Fbxo22 and Fbxo30; (e) for F-box protein βTrCP and the SCF^βTrCP substrates Wee1 and pIκBα; (f) for the adaptor KEAP1 and the Cul3^KEAP1 substrate Nrf2; (g) for F-box proteins Fbxw7 and Fbxo3.
Cells were maintained in a humidified incubator at 37 °C and 5% CO2. HCT116 cells (ATCC #CCL-247) were grown in McCoy's 5A medium (GIBCO #16600–082) supplemented with 10% fetal bovine serum (FBS), TE-1 (RIKEN BioResource Center, #RCB1894), NCI-H2030 (ATCC #CRL-591), SU-DHL-1 (DMSZ #ACC 356), NOMO-1 (HSRRB #IFO50474) and NCIH196 cells (ATCC, #CRL-5823) in RPMI-1640 medium (GIBCO#61870–010) supplemented with 10% FBS, 10 mM HEPES, 1 mM sodium pyruvate and THP-1 cells (ATCC #TIB-202) with additional 0.05 mM 2-mercaptoethanol. DMS273 cells (ECACC #950628) were cultured in Waymouth's MB 752/1 medium (GIBCO#11220–035) supplemented with 10% FBS. All cells were negatively tested for mycoplasma contamination either by the vendor or in house. For treatment with compounds, sub-confluent cells were either treated with inhibitors at the indicated concentrations or mock treated with an equivalent amount of DMSO (final content 0.1%). If not stated otherwise, cells were harvested after incubation for 16 h and subjected to SDS–PAGE and western blotting. The RNA interference experiment was performed with CSN5 stealth siRNA (#HSS116986) and stealth negative control siRNA (#12935–400) (Invitrogen), which were transfected at 10 nM into HCT116 cells using HiperFect (Qiagen) according to the manufacturer's protocols. Seventy-two hours after transfection, cells were harvested and subjected to SDS–PAGE and western blotting (see Supplementary Fig. 7 for all western blottings performed).
For further analysis, cell lysates were prepared by direct lysis with 2 × Sample buffer (65.8 mM Tris-HCl, pH 6.8, 2.1% SDS, 26.3% glycerol, 0.01% bromophenol blue and 20 mM DTT). Protein lysates from tumour powder were prepared in RIPA buffer (50 mM Tris-HCl pH 8.0, 150 mM NaCl, 1% Triton X-100, 2 mM EDTA, 0.5% sodium deoxycholate and 0.1% SDS) supplemented with 10 mM N-ethylmaleimide, protease inhibitor and phosphatase inhibitor cocktails (Roche Diagnostics). Cells from longer compound incubations were also lysed in RIPA buffer, which allows the protein concentration to be determined by BCA Protein Assay Kit (Pierce). Proteins were separated by SDS–PAGE using 4–20% Tris-Glycine Gels (Invitrogen) and subsequently transferred to polyvinylidene difluoride membranes using a Trans-Blot Turbo System (BioRad). […] Horseradish peroxidase-conjugated secondary antibodies (1:3,000) were purchased from Promega AG and bound antibody was detected by enhanced chemiluminescence (Pierce).

SU-DHL-1 cells = experiment: Cell viability assay (CellTiter-Glo), SU-DHL-1; assay type: cell-based, human
Protocol: Cells were maintained in a humidified incubator at 37 °C and 5% CO2. […] All cells were negatively tested for mycoplasma contamination either by the vendor or in house. […] If not stated otherwise, cells were harvested after incubation for 16 h and subjected to SDS-PAGE and western blotting. The RNA interference experiment was performed with CSN5 stealth siRNA (#HSS116986) and stealth negative control siRNA (#12935-400) (Invitrogen), which were transfected at 10 nM into HCT116 cells using […] (Qiagen) according to the manufacturer's protocols. Seventy-two hours after transfection, cells were harvested and subjected to SDS-PAGE and western blotting (see Supplementary Fig. 7 for all western blottings performed). A standardized CellTiter-Glo Assay (Promega #G7570) based on the quantification of ATP was applied according to the manufacturer's protocol to measure the amount of viable cells in culture. In brief, cells were seeded into 384-well plates at optimal density for each cell line. After 4 h, compounds were added at different concentrations in growth medium and incubated for another 72 h in a humidifying chamber at 37 °C and 5% CO2. Eventually, equal amounts of CellTiter-Glo reagent were added directly to the cells, incubated for 15 min and luminescence was recorded using PHERAstar plate reader (BMG LABTECH GmbH).

CC(C)n1nc(C(F)F)cc1C(=O)Nc1ccc([C@H]2[C@@H](O)CCCc3cncn32)c(-c2ccccc2)c1 [CSN5i-3, 3-(Difluoromethyl)-N-(6-((5S,6S)-6-hydroxy-6,7,8,9-tetrahydro-5H-imidazo[1,5-a]azepin-5-yl)-[1,1′-biphenyl]-3-yl)-1-isopropyl-1H-pyrazole-5-carboxamide]
degradation of Wee1, pIκB and Nrf2 (HCT116 cells; HCT116, 1 μM): did not affect their degradation
levels of SRMs Skp2, Fbxo22 and Fbxo30 (HCT116 cells; HCT116, 1 μM): degradation
levels of βTrCP, KEAP1, Fbxo3 and Fbxw7 (HCT116 cells; HCT116, 1 μM): remained stable
cullin-1 (Cul1) deneddylation in HCT116 cells (HCT116 cells; qualitative western blot analysis): accumulation of neddylated Cul1
pEC50 (SU-DHL-1 cells; Homo sapiens, SU-DHL-1, 72 h, read-out: EC50 cell viability): 7.89
AMAX (SU-DHL-1 cells; SU-DHL-1 in vitro, 72 h): ≤ −95%

Reference: publication PMC5078989, “Targeted inhibition of the COP9 signalosome for treatment of cancer” (Nature Communications, 2016)
